Literature values in patent publication US20070224292A1, “Extended effect ergogenic drink” (priority 2006, published 2007).
Read-outs that look alike come from different tables or passages of the source.

Key:
[1] = after two hours; males (but not females)
[2] = first fifteen minutes of exercise
[3] = during exercise in normal subjects
[4] = visual monitoring test simulating night driving
[5] = three women; 1 mg chromium with 100 mg vitamin C versus 1 mg chromium without vitamin C
[6] = 200 to 400 mcg chromium three times per day, polynicotinate or picolinate form
[7] = animals; given at the same time as vitamin C
[8] = for time to reach peak serum concentrations: following ingestion
[9] = immediate-release nicotinic acid
[10] = in vivo

## Cn1c(=O)c2c(ncn2C)n(C)c1=O [Caffeine]
[1]
  CNS stimulation compared to placebo: lower CNS (Central Nervous System) stimulation
[2]
  reduction of the loss of glycogen: fifty
[3]
  circulating free fatty acids and glycerol: increase circulating free fatty acids and glycerol
Absorbed through stomach and small intestine
  time to reach peak levels in the bloodstream: 15 to 45 min
Women taking oral contraceptives
  half-life, women taking oral contraceptives: up to 12 hours
[4]
  effect on attention lapses: prevent attention lapses

## [Cr] [Chromium]
[5]
  plasma levels of chromium: higher plasma levels of chromium
[6]
  effect on insulin sensitivity: improve insulin sensitivity
[7]
  chromium uptake: enhanced

## O=C(O)c1cccnc1 [Niacin, Nicotinic acid]
[8]; extended-release form
  time to reach peak serum concentrations: 4 to 5 h
[8]; immediate release Niacin
  half-life: approximately 1 hour
[8]; immediate-release or crystalline form
  time to reach peak serum concentrations: approximately 45 minutes
[9]
  duration of flushing: up to one
  time to onset of flushing following ingestion: ≤ 20 min

## Chromium Polynicotinate
[10]
  effect on blood lipid levels: lower blood lipid levels
